According to patent US20220273823A1, “THERANOSTIC CONJUGATES” (Ariel Scientific Innovations Ltd., priority 2019, published 2022):
Where two headings read alike, the source gives them in different places. One block for each compound: values may come before it.

Legend:
CHO = assay: XTT cell survival assay (growth inhibition), CHO; type: cell-based, Chinese hamster; settings: up to 25 μM
Description: (§1) The cytotoxicity of the peptide-drug conjugates was determined by measuring the mitochondrial enzyme activity, using a commercial XTT assay kit. All samples were prepared in PBS pH 7.4 contained 3% DMSO. The Cells were cultured in micro wells at a concentration 5-10×10^4 cells/well. The cells were washed and fresh cell medium containing different concentrations (up to 25 μM) of the conjugates were added and the cells were incubated for 10 minutes. The cultures were washed and then given a fresh medium and cultured for 48 hours and 72 hours. At the end of the second incubation, XTT reagent was added and the cells were re-incubated for additional 2-4 hours. During that time the absorbencies in the wells were measured with a TECAN Infinite M200 ELISA reader at 480 nm and 680 nm. The difference in the absorbencies measurements at these two wavelengths was used for calculating the percentage Growth Inhibition (GI) in test wells compared to two controls: cells that were exposed to the medium and solvent, and those which were exposed to a solvent-free medium. All the tests were done in triplicate.

Panc-1 = assay: XTT cell survival assay (growth inhibition), Panc-1; type: cell-based, human; settings: Panc-1, XTT, up to 25 μM
Description: as §1

[1] = Spectral properties of RD, IRD-CLB and 5-CLB in PB and CM; type: physicochemical
Description: The spectral properties of the dye RD and its conjugates IRD-CLB and 5-CLB were measured at the concentrations (c) of 0.6 μM in 10 mM phosphate buffer pH 7.5 (PB) and cell medium pH 7.5 (CM), both containing 20% of acetonitrile (ACN) to improve solubility of the compounds.
Table 2 presents the absorption (λmaxAb) and emission (λmaxFl) maxima, extinction coefficients (ε) and fluorescence quantum yields (ΦF) of the RD dye and IRD-CLB and 5-CLB conjugates measured at 25° C. in 10 mM phosphate buffer pH 7.5 (PB) and cell medium pH 7.5 (CM).
The biodegradable ester linker (BL) in IRD-CLB and 5-CLB can be hydrolyzed to release free CLB and, accordingly, IRD turns into RD, which is accompanied by a noticeable change in the spectral properties. The time-dependent emission spectra were recorded in PB and CM (see, FIGS. 9A-D) using the excitation wavelengths 720 nm and 532 nm. The first one enabled monitoring of the decrease in the concentration of IRD-CLB and 5-CLB, while the second one—the increase in the concentration of RD and OctA-RD. Only the NIR fluorescence of IRD-CLB and 5-CLB was detected, when excited at 720 nm; and only the red fluorescence of RD and OctA-RD was detected, when excited at 532 nm.
Absorption spectra were recorded on a Jasco V-730 UV-Vis spectrophotometer and the fluorescence spectra were measured on Edinburgh FS5 spectrofluorometer. The absorption and fluorescence spectra and the quantum yields (ΦF) were measured in a 1-cm quartz cell at ˜0.5 μM dye concentrations in PB 10 mmol buffer pH 7.4 at 25° C. and cell medium pH 7.4. Excitation wavelength was 720 nm and 532 nm. The recorded fluorescence spectra were corrected using the wavelength-dependent instrument sensitivity coefficients. Absorption and emission maxima were measured with accuracy of ±0.3 nm and ±0.5 nm, respectively, and rounded. For the determination of the quantum yields, the integrated relative intensities were measured versus ICG™ in methanol as the reference (ΦF=0.043) and Cy3™ in PBS (ΦF=0.043). The absorbance values measured for the samples and the reference at the excitation wavelength were 0.04-0.06 measured in a 1-cm cell. The absolute quantum yields were calculated according to Equation 1.

[2] = Time-dependent absorption/fluorescence CLB cleavage profiles of XCy-CLB and OCTA-G-XCy-CLB in PB and cell medium; type: in vitro ADME; settings: read-out: CLB release half-life τ1/2 (converted)
Description: To estimate the rate of the CLB release, the time-dependent absorption and fluorescence spectra of XCy-CLB and OCTA-G-XCy-CLB were measured in PB and CM (see, FIGS. 5A-H). With respect to time, the absorption band at about 600 nm decreases, a new band at about 680 nm increases and a fluorescence band subsequently appears at ˜708 nm (λex=650 nm).
Based of the time-dependent absorption and emission spectra, corresponding drug cleavage profiles were obtained (see, FIGS. 6A-B) and the drug release rates were quantified by half-lives (τ1/2). The cleavage profiles and half-lives obtained spectrophotometrically and spectrofluorometrically almost coincide. […] The release of CLB from OCTA-G-XCy-CLB in CM (τ1/2˜25 min) is […] faster than that in PB τ1/2 ˜2.5 h. Thus, the drug release for both XCy-CLB and OCTA-G-XCy-CLB in CM is much faster compared to PB. The obtained half-lives of the ester bond cleavage in these media were found in good agreement with some reported data. Linkage of OCTA to the conjugate accelerates the drug release by factor of 6 in PB and 1.3 in CM.
(§2) Absorption spectra were recorded on a Jasco V-730 UV-Vis spectrophotometer and the fluorescence spectra were measured on Edinburgh FS5 spectrofluorometer. The absorption and fluorescence spectra were measured in 1-cm quartz cells at about 0.5 μM dye concentrations in PB 10 mmol buffer pH 7.4 at 25° C. and cell medium pH 7.4. Excitation wavelength was 650 nm. All the solutions were filtered in PVDF 0.45 μm filter before taking spectrum.

[3] = Real time fluorescence microscopy monitoring of CLB release in CHO cells (negative control); type: cell-based, Chinese hamster; settings: hamster, pH 7.4, 10 min incubation with 10 μM, 37° C., read-out: CLB cleavage half-life τ1/2 (converted)
Description: (§3) In the next step, the inventors investigated the performance of OCTA-G-XCy-CLB in real time monitoring of drug delivery and drug release into human pancreatic cancer cell line (Panc-1). As a negative control, Chinese hamster ovary cell line (CHO) was employed. Panc-1 contains overexpressed somatostatin receptors SSTR-2 and SSTR-5 while the CHO has the decreased number of these receptors. Panc-1 and CHO were incubated at 37° C. for 10 min with 10 μM OCTA-G-XCy-CLB in PBS pH 7.4 containing 3% DMSO and washed thoroughly with PBS pH 7.4 to remove excess conjugate. Then the fluorescence microscopy images were taken over time (FIGS. 7A, B). The fluorescence intensities for both cell lines gradually increase over time signaling the CLB release. […]
(§4) To monitor drug release, Panc-1 and CHO cell lines were grown in six-well culture plates and then washed with PBS (pH 7.4) two times after that incubated for 10 min with 10 μM OCT(N)-G-XCy-CLB in PBS pH 7.4 containing 3% DMSO. […] The washed cell samples were resuspended in PBS and immediately analyzed the fluorescence changes by using fluorescent microscope. […]
(§5) The band intensities in a representative experiment were quantified by creating region of interest (ROI) around each image and the relative fluorescence intensity of each sample was measured (via the “Measure” function) with Image J software.

[4] = Absorption and emission spectra of XCy, XCy-CLB and OCTA-G-XCy-CLB in PB and CM; type: physicochemical; settings: for λmaxFl: λex 650 nm; for absorption maximum / fluorescence: in PB and CM
Description: The absorption and emission spectra of XCy, XCy-CLB and OCTA-G-XCy-CLB were investigated in two different conditions, 10 mM phosphate buffer pH 7.4 containing 10% methanol (PB) and cell medium pH 7.4 containing 10% methanol (CM) (see, Table 1 below). CM was taken as a model of normal physiological conditions during drug delivery in the experiments with cells. A RPMI-1640 standard cell medium that contains 50 mL fetal bovine serum (FBS), 5 mL penicillin (10,000 U/mL), 5 mL streptomycin (10 mg/mL), 5 mL of 200 mM glutamine, and 5.3 mg/L phenol red indicator was utilized. FBS contains enzyme aspartate-aminotransferase that facilitates the ester bond cleavage.
as §2

[5] = Real time fluorescence microscopy monitoring of CLB release in Panc-1 cells; type: cell-based; settings: human, pH 7.4, Panc-1, 10 min incubation with 10 μM, 37° C., read-out: CLB cleavage half-life τ1/2
Description: as §3, §4, §5

[6] = PB:ACN (4:1, v/v), 25° C., c=0.6 μM
[7] = CM: cell medium pH 7.4 containing 10% methanol
[8] = PB: 10 mM phosphate buffer pH 7.4 containing 10% methanol

Compound: O=C(O)CCCc1ccc(N(CCCl)CCCl)cc1 [CLB, chlorambucil]
Growth Inhibition (GI) / toxicity (CHO): neither free OCT, nor free CLB exhibited detectible toxicity | Growth Inhibition (GI) / toxicity (Panc-1): neither free OCT, nor free CLB exhibited detectible toxicity

Compound: C[N+]1=C(C=CC2=C(OC(=O)CCCc3ccc(N(CCCl)CCCl)cc3)C(=CC=C3N(CCCCCC(=O)O)c4ccccc4C3(C)C)CCC2)C(C)(C)c2ccccc21 [IRD-CLB, 2-(−2-(−2-((4-(4-(bis(2-chloroethyl)amino)phenyl)butanoyl)oxy)-3-(2-(−1-(5-carboxypentyl)-3,3-dimethylindolin-2-ylidene)ethylidene)cyclohex-1-en-1-yl)vinyl)-1,3,3-trimethyl-3H-indol-1-ium]
ΦF ([1]; CM:ACN (4:1, v/v), 25° C.): 6.3% | λmaxAb ([1]; CM:ACN (4:1, v/v), 25° C.): 785 nm | λmaxFl ([1]; CM:ACN (4:1, v/v), 25° C.): 805 nm | emission when excited at 532 nm ([1]; PB and CM): no detectable emission | ΦF ([1]; PB:ACN (4:1, v/v), 25° C.): 2.9% | ε ([1]; PB:ACN (4:1, v/v), 25° C.): 160,000 M^−1cm^−1 | λmaxFl ([1]; PB:ACN (4:1, v/v), 25° C.): 795 nm | λmaxAb [1, 6]: 775 nm

Compound: C[C@@H](O)[C@H](NC(=O)[C@@H]1CSSC[C@H](NC(=O)[C@H](Cc2ccccc2)NC(=O)CCCNC(=O)CCCCC[N+]2=C(/C=C/C3=C4Oc5cc(OC(=O)CCCc6ccc(N(CCCl)CCCl)cc6)ccc5C=C4CCC3)C(C)(C)c3ccccc32)C(=O)N[C@@H](Cc2ccccc2)C(=O)N[C@@H](Cc2c[nH]c3ccccc23)C(=O)N[C@@H](CCCCN)C(=O)N[C@@H]([C@@H](C)O)C(=O)N1)C(N)=O [OCTA-G-XCy-CLB]
half-life at 0.5 μM ([2]; bovine, cell medium (contains esterase), in CM (cell medium pH 7.4, esterase present)): ~0.417 h | half-life at 0.5 μM ([2]; phosphate buffer (PB), in PB pH 7.4): ~2.5 h | Growth Inhibition (GI) / toxicity (Panc-1): significantly elevated growth inhibition compared to CHO | half-life at 10 μM [3]: ~2.5 h | λmaxAbs [4, 7]: 604 nm | λmaxFl [4, 7]: No fl. | λmaxAbs [4, 8]: 604 nm | λmaxFl [4, 8]: No fl. | absorption maximum [4]: ~600 nm | fluorescence [4]: not detectable | half-life at 10 μM [5]: ~0.417 h

ΦF ([1]; CM:ACN (4:1, v/v), 25° C.): 2.6% | λmaxAb ([1]; CM:ACN (4:1, v/v), 25° C.): 526 nm | λmaxFl ([1]; CM:ACN (4:1, v/v), 25° C.): 626 nm | ΦF ([1]; PB:ACN (4:1, v/v), 25° C.): 9.9% | λmaxFl ([1]; PB:ACN (4:1, v/v), 25° C.): 643 nm | λmaxAb [1, 6]: 555 nm
Compound: CN1C(=CC=C2CCCC(=CC=C3N(CCCCCC(=O)O)c4ccccc4C3(C)C)C2=O)C(C)(C)c2ccccc21 [RD, 6-(−3,3-dimethyl-2-(−2-(−2-oxo-3-(2-(−1,3,3-trimethylindolin-2-ylidene)ethylidene)cyclohexylidene)ethylidene)indolin-1-yl)hexanoic acid]

λmaxAbs [4, 7]: 679 nm | λmaxFl [4, 7]: 713 nm | λmaxAbs [4, 8]: 681 nm | λmaxFl [4, 8]: 708 nm | absorption maximum [4]: about 680 nm | fluorescence [4]: around 710 nm
Compound: CC1(C)C(/C=C/C2=C3Oc4cc(O)ccc4C=C3CCC2)=[N+](CCCCCC(=O)O)c2ccccc21 [XCy, (E)-1-(5-carboxypentyl)-2-(2-(6-hydroxy-2,3-dihydro-1H-xanthen-4-yl)vinyl)-3,3-dimethyl-3H-indol-1-ium]

Compound: CC1(C)C(/C=C/C2=C3Oc4cc(OC(=O)CCCc5ccc(N(CCCl)CCCl)cc5)ccc4C=C3CCC2)=[N+](CCCCCC(=O)O)c2ccccc21 [XCy-CLB, (E)-2-(2-(6-((4-(4-(bis(2-chloroethyl)amino)phenyl)butanoyl)oxy)-2,3-dihydro-1H-xanthen-4-yl)vinyl)-1-(5-carboxypentyl)-3,3-dimethyl-3H-indol-1-ium]
half-life ([2]; bovine, in CM (cell medium pH 7.4, esterase present)): ~0.667 h | half-life ([2]; phosphate buffer, in PB pH 7.4): ~8 h | λmaxAbs [4, 7]: 602 nm | λmaxFl [4, 7]: No fl. | λmaxAbs [4, 8]: 598 nm | λmaxFl [4, 8]: No fl. | absorption maximum [4]: ~600 nm | fluorescence [4]: not detectable

Compound: octreotide amide
Growth Inhibition (GI) / toxicity (CHO): neither free OCT, nor free CLB exhibited detectible toxicity | Growth Inhibition (GI) / toxicity (Panc-1): neither free OCT, nor free CLB exhibited detectible toxicity
